Laboratory results: ChEMBL document CHEMBL4622851, “Cytotoxicity of 4-substituted quinoline derivatives: Anticancer and antileishmanial potential” (Bioorg Med Chem, 2020)
Activity calls are given as the source filed them. No cut-off for these calls is given here.

Tests used:
[1] = tested on: Jurkat; assay: Cytotoxicity against human Jurkat cells assessed as reduction in cell viability at 50 and 100 uM after 24 hrs by MTT assay; assay type: functional, cell-based
[2] = tested on: SK-MEL-147; assay: Cytotoxicity against human SK-MEL-147 cells assessed as reduction in cell viability after 24 hrs by MTT assay; assay type: functional, cell-based; details: SK-MEL-147, 24 h
[3] = tested on: Jurkat; assay: Cytotoxicity against human Jurkat cells assessed as reduction in cell viability after 24 hrs by MTT assay; assay type: functional, cell-based
[4] = tested on: SK-MEL-147; assay: Cytotoxicity against human SK-MEL-147 cells assessed as reduction in cell viability at 50 and 100 uM after 24 hrs by MTT assay; assay type: functional, cell-based
[5] = Inhibition of Leishmania mexicana rCPB3.0 H84Y mutant using Z-FR-AMC as substrate by spectrofluorometric analysis
[6] = target: T1, Cysteine proteinase B (Leishmania mexicana, UniProt P36400); assay: Inhibition of Leishmania mexicana rCPB2.8 using Z-FR-AMC as substrate by spectrofluorometric analysis
[7] = Inhibition of Leishmania mexicana rCPB3.0 using Z-FR-AMC as substrate by spectrofluorometric analysis
[8] = tested on: Leishmania mexicana; assay: Inhibition of Leishmania mexicana rCPB3.0 H84Y mutant assessed as inhibition constant for uncompetitive inhibition using Z-FR-AMC as substrate preincubated for 10 mins followed by substrate addition by Lineweaver-Burk double reciprocal plot analysis
[9] = Inhibition of Leishmania mexicana rCPB3.0 H84Y mutant assessed as inhibition constant using Z-FR-AMC as substrate preincubated for 10 mins followed by substrate addition by Lineweaver-Burk double reciprocal plot analysis
[10] = target: Cysteine proteinase B (Leishmania mexicana) (UniProt P36400); assay: Inhibition of Leishmania mexicana rCPB2.8 assessed as inhibition constant for uncompetitive inhibition using Z-FR-AMC as substrate preincubated for 10 mins followed by substrate addition by Lineweaver-Burk double reciprocal plot analysis
[11] = Inhibition of Leishmania mexicana rCPB3.0 assessed as inhibition constant using Z-FR-AMC as substrate preincubated for 10 mins followed by substrate addition by Lineweaver-Burk double reciprocal plot analysis
[12] = tested on: Leishmania mexicana; assay: Inhibition of Leishmania mexicana rCPB3.0 assessed as inhibition constant for uncompetitive inhibition using Z-FR-AMC as substrate preincubated for 10 mins followed by substrate addition by Lineweaver-Burk double reciprocal plot analysis
[13] = target: T1, Cysteine proteinase B; assay: Inhibition of Leishmania mexicana rCPB2.8 assessed as inhibition constant using Z-FR-AMC as substrate preincubated for 10 mins followed by substrate addition by Lineweaver-Burk double reciprocal plot analysis

T1 sequence (P36400 whole entry): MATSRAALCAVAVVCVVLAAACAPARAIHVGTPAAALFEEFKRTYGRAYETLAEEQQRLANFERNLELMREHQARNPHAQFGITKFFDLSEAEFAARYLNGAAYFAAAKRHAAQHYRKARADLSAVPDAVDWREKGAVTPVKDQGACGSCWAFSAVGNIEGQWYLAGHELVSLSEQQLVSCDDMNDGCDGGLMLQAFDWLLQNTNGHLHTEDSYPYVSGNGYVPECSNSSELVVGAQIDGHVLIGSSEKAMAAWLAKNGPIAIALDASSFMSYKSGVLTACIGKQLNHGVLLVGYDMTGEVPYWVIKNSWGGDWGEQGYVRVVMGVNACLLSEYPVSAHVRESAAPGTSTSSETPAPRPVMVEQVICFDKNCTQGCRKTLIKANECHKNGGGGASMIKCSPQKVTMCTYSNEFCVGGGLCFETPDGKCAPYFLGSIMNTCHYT
Sequence of Cysteine proteinase B (Leishmania mexicana) (P36400 126-443 limits assumed): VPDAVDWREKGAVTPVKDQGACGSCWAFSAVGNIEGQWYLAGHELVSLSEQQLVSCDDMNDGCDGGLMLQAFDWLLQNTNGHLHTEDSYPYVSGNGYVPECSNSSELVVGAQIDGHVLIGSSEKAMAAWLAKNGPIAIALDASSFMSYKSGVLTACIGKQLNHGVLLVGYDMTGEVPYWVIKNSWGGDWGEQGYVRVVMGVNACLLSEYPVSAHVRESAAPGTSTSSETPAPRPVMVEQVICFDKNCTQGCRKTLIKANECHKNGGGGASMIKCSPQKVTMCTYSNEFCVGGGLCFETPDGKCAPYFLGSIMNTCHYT

Compound	Activity [1]	EC50 [2]	EC50 [3]	Activity [4]	IC50 [5]	IC50 [6]	IC50 [7]	alphaKi [8]	Ki [9]	alphaKi [10]	Ki [11]	alphaKi [12]	Ki [13]
CCOC(=O)c1cc([Te]c2ccccc2)c2cc(OC)ccc2n1	Active	128 µM	77.4 µM	Active									
CCOC(=O)c1cc(C#CCCO)c2cc(OC)ccc2n1	Active	> 150 µM	123 µM	Active									
CCOC(=O)c1cc([Se]c2ccc3cc(OC)ccc3c2)c2cc(OC)ccc2n1	Active	30.8 µM	31.3 µM	Active	8.44 µM								
CCOC(=O)c1cc([Se]c2ccccc2C)c2cc(OC)ccc2n1	Active	38.9 µM	14.9 µM	Active									
CCOC(=O)c1cc([Se]c2ccccc2)c2ccccc2n1	Active	86.3 µM	98.2 µM	Active	25.3 µM	54 µM	57.5 µM						
CCOC(=O)c1cc([Se]c2ccc(F)cc2)c2cc(OC)ccc2n1	Active	> 150 µM	134 µM	Active									
CCOC(=O)c1cc(C#Cc2ccc(N)cc2)c2cc(OC)ccc2n1	Active	8.8 µM	61 µM	Active									
COc1ccc([Se]c2cc(-c3ccc(O)cc3)nc3ccc(OC)cc23)cc1	Active	59.2 µM	41.5 µM	Active	12.4 µM	3.6 µM	5.78 µM	18.4 µM	18.3 µM	22.1 µM	18.5 µM	18.6 µM	21.7 µM
COc1ccc2nc(-c3c(Cl)cccc3Cl)cc([Se]c3ccccc3)c2c1	Active	> 150 µM	17 µM	Active									
CCOC(=O)c1cc([Se]c2ccccc2)c2cc(Br)ccc2n1	Active	12.4 µM	20.8 µM	Active									
COc1ccc2nc(-c3cccs3)cc([Se]c3ccccc3)c2c1	Active	> 150 µM	99.8 µM	Active									
